Laboratory results: BindingDB's records for doi:10.1021/jm0506165 (Universita Di Napoli Federico Ii, 2006)

Target: Protein farnesyltransferase/geranylgeranyltransferase type-1 subunit alpha (Bos taurus, UniProt P29702)
Assay: PFT IC50 Determination
Details: pH 7.5; 37 °C
Description: Assays for PFT activity were performed with a PFT-specific scintillation assay (SPA) kit (Amersham Biosciences, Piscataway, NJ). IC50 values were calculated using linear regression analysis of the plots of [3H] farnesyl pyrophosphate (FPP) prenylation versus concentration of compounds.

| IC50 | Compound |
| --- | --- |
| 100 nM | CSCC[C@H](NC(=O)[C@H](Cc1ccc(O)c(C)c1C)NC(=O)[C@@H](NC(=O)[C@@H](N)CS)C(C)C)C(=O)O [(2S)-2-[(2S)-2-[(2S)-2-[(2R)-2-amino-3-sulfanylpropanamido]-3-methylbutanamido]-3-(4-hydroxy-2,3-dimethylphenyl)propanamido]-4-(methylsulfanyl)butanoic acid] |
| > 100000 nM | CSCC[C@H](NC(=O)[C@@H](Cc1ccc(O)c(C)c1C)NC(=O)[C@@H](NC(=O)[C@H](CS)NC=O)C(C)C)C(=O)O [Cmpound XI] |
